Laboratory results from US20100050299A1, “POST-HARVEST TREATMENT OF FRUITS WITH AN ANTIFUNGAL COMPOSITION” (priority 2006, published 2010).

What was measured:
[1] = tested on: Colletotridcum musae CBS19231; test: Treatment of freshly harvested banana clusters (Example 3); assay type: in vivo; details: for bananas of the clusters on which moulds were observed: after 15 days of incubation, 12 bananas; for Number of bananas showing mould growth/Total number of bananas: after 15 days, freshly harvested, 12 bananas (3 clusters with 4 bananas per cluster)
Method: (§1) In this experiment organic bananas, Sabrosa® from the Dominican Republic, were used. The bananas were obtained from a local retailer in The Netherlands. The bananas were treated with spores of the phytopathogenic mould Colletotridcum musae CBS19231. The mould spores were obtained using well-known methods. The bananas were injured according to the method described by de Lapere de Bellaire and Dubois (1987). Bananas were wounded two times using a cork borer followed by contamination with approximately 2.5×10^4 mould spores of C. musae CBS19231 per wound. After incubation for 4 hours at room temperature, the bananas were dipped for one minute in one of the following compositions: a) no treatment (control 1), b) dipped in water (control 2), c) dipped in 1000 ppm natamycin, d) dipped in 240 mM of potassium phosphite, e) dipped in 1000 ppm of natamycin+240 mM of potassium phosphite. The experiment was executed in triplo; the natamycin and potassium phosphite solution were prepared using well-known methods. All compositions contained 0.1% (v/v) of the sticking agent Bond® (Loveland Industries Ltd.) and 0.14% (v/v) of the surfactant Zipper® (Asepta BV, The Netherlands). After this treatment the bananas were incubated in closed boxes at 21° C. at elevated humidity. Each day the bananas were judges visually on mould development.
(§2) In this experiment freshly harvested bananas were used. A few days after harvesting and the de-latexing treatment to remove latex which is leaking from the wounds using well-known methods, the bananas were infected with mould spores and treated as described in Example 1. For each composition, 3 clusters comprising 4 bananas per cluster were used (experiment done in triplo).

[2] = tested on: Colletotridcum musae CBS19231; test: Treatment of bananas, Neocryl and xanthan instead of Bond and Zipper (Example 5); assay type: in vivo; details: after 15 days; for wounds showing mould growth: 12 wounds; for Number of wounds showing mould growth/Total number of wounds: Neocryl 21.3 g/l and xanthan 1.0 g/l, 12 wounds (6 bananas with 2 wounds per banana)
Method: as §1
The experiment described herein was executed as described in Example 1. However, in this experiment the sticking agent Bond® and the surfactant Zipper® were not used; instead Neocryl® (DSM) and xanthan were applied in a concentration of respectively 21.3 g/l and 1.0 g/l. In this experiment 12 wounds were made instead of 6 (2 wounds per banana; 6 bananas wounded).

[3] = tested on: Colletotridcum musae CBS19231; test: Treatment of banana clusters wounded at the hand, Neocryl and xanthan instead of Bond and Zipper (Example 6); assay type: in vivo; details: for wounds with mould growth: after 15 days of incubation, 6 wounds; for Number of wounds showing mould growth/Total number of wounds: after 15 days, Neocryl 21.3 g/l and xanthan 1.0 g/l, 6 wounds (3 clusters, 2 wounds per cluster at the hand)
Method: as §1, §2
(§3) The experiment described in this example was done identically compared to the experiment described in Example 3, with the proviso that bananas were harvested and thereafter new wounds were made with a knife at the stalk of the banana clusters (2 wounds were made per cluster).
The experiment described herein was executed as described in Example 4, with the proviso that the sticking agent Bond® and the surfactant Zipper® were replaced by Neocryl® (DSM) and xanthan in a concentration of respectively 21.3 g/l and 1.0 g/l. Three clusters comprising 4 bananas each were wounded two times at the hand of the cluster resulting in a total number of wounds of 6.

[4] = tested on: Colletotridcum musae CBS19231; test: Treatment of bananas with wounds made with a knife at the stalk (Example 2); assay type: in vivo; details: for wounds/bananas with mould growth: after 15 days of incubation, 3 bananas, wound at the stalk; for Number of wounds showing mould growth/Total number of wounds: after 15 days, 3 wounds (3 bananas with 1 wound made at the stalk per banana)
Method: as §1
The experiment described in this example was done identically compared to the experiment described in Example 1, with the proviso that the wounds were made with a knife at the stalk of the bananas.

[5] = tested on: Colletotridcum musae CBS19231; test: Treatment of bananas wounded with a cork borer and contaminated with mould spores, then dipped (Example 1); assay type: in vivo; details: for Number of wounds showing mould growth/Total number of wounds: after 15 days at 21° C., dipped one minute, 1000 ppm natamycin, 240 mM potassium phosphite, 6 wounds (3 bananas with 2 wounds per banana); for wounds showing mould growth: after 15 days, out of 6 wounds
Method: as §1

[6] = tested on: Colletotridcum musae CBS19231; test: Treatment of freshly harvested banana clusters, new wounds made with a knife at the stalk (Example 4); assay type: in vivo; details: for mould growth on banana clusters: after 15 days of incubation, 3 banana clusters; for Number of clusters showing severe mould growth/Total number of clusters: after 15 days, freshly harvested, 3 clusters, 2 wounds per cluster at the stalk
Method: as §1, §2, §3

moulds on bananas = details: in vivo; cited from earlier work

| Compound | bananas of the clusters on which moulds were observed [1] | Number of bananas showing mould growth/Total number of bananas [1] | wounds showing mould growth [2] [%] | Number of wounds showing mould growth/Total number of wounds [2] | wounds with mould growth [3] | Number of wounds showing mould growth/Total number of wounds [3] | wounds/bananas with mould growth [4] | Number of wounds showing mould growth/Total number of wounds [4] | Number of wounds showing mould growth/Total number of wounds [5] | wounds showing mould growth [5] | mould growth on banana clusters [6] | Number of clusters showing severe mould growth/Total number of clusters [6] | control of moulds on bananas (moulds on bananas) | spectrum of action (moulds on bananas) |
| --- | --- | --- | --- | --- | --- | --- | --- | --- | --- | --- | --- | --- | --- | --- |
| potassium phosphite [Composition d] | all bananas | 12/12 | 25 | 3/12 | all wounds | 6/6 | all wounds | 3/3 | 5/6 | 5 out of 6 | 2 of the 3 | 2/3 | – | – |
| C[C@@H]1C/C=C/C=C/C=C/C=C/[C@H](O[C@@H]2O[C@H](C)[C@@H](O)[C@H](N)[C@@H]2O)C[C@@H]2O[C@](O)(C[C@@H](O)C[C@H]3O[C@@H]3/C=C/C(=O)O1)C[C@H](O)[C@H]2C(=O)O [Composition c, natamycin] | all bananas | 12/12 | 50 | 6/12 | all wounds | 6/6 | 2 of 3 | 2/3 | 6/6 | 6 | in all of the natamycin treated banana clusters | 3/3 | not sufficiently active | broad spectrum action |
